Measured values reported in patent US8563551B2, “Method for preventing or treating a disease related to the glucocorticoid receptor” (Santen Pharmaceutical Co., Ltd., priority 2006, dated 2013).

Target: T1, Recombinant human GR (Homo sapiens, UniProt P04150)
T1 construct: purchased Invitrogen P2816
T1 sequence (P04150 1-777): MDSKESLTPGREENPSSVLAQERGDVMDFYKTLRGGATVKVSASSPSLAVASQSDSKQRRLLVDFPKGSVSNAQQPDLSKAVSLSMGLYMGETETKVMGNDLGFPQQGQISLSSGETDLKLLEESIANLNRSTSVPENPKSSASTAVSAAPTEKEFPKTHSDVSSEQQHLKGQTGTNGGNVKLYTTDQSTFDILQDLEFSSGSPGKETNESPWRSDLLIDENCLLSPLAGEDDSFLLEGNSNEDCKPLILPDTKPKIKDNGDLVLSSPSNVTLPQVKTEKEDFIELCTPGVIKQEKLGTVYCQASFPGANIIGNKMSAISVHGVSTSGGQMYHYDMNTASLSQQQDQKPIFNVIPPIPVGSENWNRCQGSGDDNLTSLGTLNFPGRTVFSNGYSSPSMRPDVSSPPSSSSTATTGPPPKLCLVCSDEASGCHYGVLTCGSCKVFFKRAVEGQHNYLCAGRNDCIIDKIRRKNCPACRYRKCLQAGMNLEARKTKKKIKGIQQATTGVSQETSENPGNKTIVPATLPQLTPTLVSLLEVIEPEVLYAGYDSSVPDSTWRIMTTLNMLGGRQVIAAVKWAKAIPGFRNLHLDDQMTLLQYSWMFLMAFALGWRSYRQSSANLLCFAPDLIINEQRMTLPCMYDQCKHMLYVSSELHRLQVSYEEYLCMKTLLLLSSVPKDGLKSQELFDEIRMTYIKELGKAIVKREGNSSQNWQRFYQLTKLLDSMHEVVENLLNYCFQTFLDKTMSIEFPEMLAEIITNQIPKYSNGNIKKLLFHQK
Test: GR competitor assay (receptor competitor assay by fluorescence polarization, Invitrogen kit P2816)
Settings: 20 μM test compound solution (10 μL per well plus 5 μL 4×GS1 and 5 μL 4×GR); relative to 2 mM dexamethasone positive control; ratios of 100% or more are indicated by 100%; read-out: GR Binding ratio (%)
Experimental: In order to evaluate a binding activity to GR, a receptor competitor assay was carried out by a fluorescence polarization method. In the assay, a GR competitor assay kit (manufactured by Invitrogen, cat No. P2816) was used, and a procedure was carried out according to the protocol attached to the kit. Hereinafter, the specific method will be described.
GR screening buffer: A buffer containing 10 mM potassium phosphate (pH 7.4), 20 mM sodium molybdate (Na2MoO4), 0.1 mM ethylene diamine tetraacetic acid (EDTA), 5 mM dithiothreitol (DTT), 0.1 mM stabilizing peptide and 2% dimethylsulfoxide was prepared.
4×GS1 solution: Fluormone™ GS1, which is a fluorescent glucocorticoid ligand, was diluted with GR screening buffer, whereby a 4 nM solution was prepared.
4×GR solution: Recombinant human GR was diluted with GR screening buffer, whereby a 16 nM solution was prepared.
After a test compound was dissolved in dimethylsulfoxide, the resulting solution was diluted with GR screening buffer, whereby a 20 μM test compound solution was prepared.
1) The test compound solution was added in an amount of 10 μL into each well of a 384-well plate, and then, 4×GS1 solution and 4×GR solution were added in an amount of 5 μL into each well, respectively.
2) The plate was incubated in a dark place at room temperature for 2 to 4 hours.
3) By using a multimode plate reader, Analyst™ HT (manufactured by LJL Biosystems), fluorescence polarization of each well was measured. As the blank, a well containing GR screening buffer in place of the test compound and 4×GS1 solution was used.
4) The same procedure as that in the above 1) to 3) was carried out except that GR screening buffer was used in place of the test compound solution, and the obtained result was taken as the negative control.
5) The same procedure as that in the above 1) to 3) was carried out except that 2 mM dexamethasone was used in place of the test compound solution, and the obtained result was taken as the positive control.
A GR binding ratio (%) was calculated from the following equation. GR binding ratio(%)=100×[1−(fluorescence polarization of test compound solution−fluorescence polarization of positive control solution)/(fluorescence polarization of negative control solution fluorescence polarization of positive control solution)] (Test Results and Discussion)

SMILES | inhibition at 20 µM (stock) [%]
COc1cc(OC(=O)c2cccc(C(C)=O)c2)ccc1-c1ccc2c(c1COC(=O)c1ccc(C)s1)C(C)=CC(C)(C)N2 [Compound 1-27, 6-[4-(3-Acetylbenzoyloxy)-2-methoxyphenyl]-5-(5-methylthiophen-2-ylcarbonyloxymethyl)-2,2,4-trimethyl-1,2-dihydroquinoline] | 89
COc1cc(OC(=O)c2cccs2)ccc1-c1ccc2c(c1COC(=O)c1ccc(C)s1)C(C)=CC(C)(C)N2 [Compound 1-29, 6-[2-Methoxy-4-(thiophen-2-ylcarbonyloxy)phenyl]-5-(5-methylthiophen-2-ylcarbonyloxymethyl)-2,2,4-trimethyl-1,2-dihydroquinoline] | 96
COc1cc(OC(=O)c2cccnc2C)ccc1-c1ccc2c(c1COC(=O)c1ccc(C)s1)C(C)=CC(C)(C)N2 [Compound 1-30, 6-[2-Methoxy-4-(2-methylpyridin-3-ylcarbonyloxy)phenyl]-5-(5-methylthiophen-2-ylcarbonyloxymethyl)-2,2,4-trimethyl-1,2-dihydroquinoline] | 96
COc1cc(OC(=O)c2sccc2Cl)ccc1-c1ccc2c(c1COC(=O)c1ccc(C)s1)C(C)=CC(C)(C)N2 [Compound 1-31, 6-[4-(3-Chlorothiophen-2-ylcarbonyloxy)-2-methoxyphenyl]-5-(5-methylthiophen-2-ylcarbonyloxymethyl)-2,2,4-trimethyl-1,2-dihydroquinoline] | 88
COc1cc(OC(=O)c2cscn2)ccc1-c1ccc2c(c1COC(=O)c1ccc(C)s1)C(C)=CC(C)(C)N2 [Compound 1-32, 6-[2-Methoxy-4-(thiazol-4-ylcarbonyloxy)phenyl]-5-(5-methylthiophen-2-ylcarbonyloxymethyl)-2,2,4-trimethyl-1,2-dihydroquinoline] | 99
COc1cc(OC(=O)c2ccncc2)ccc1-c1ccc2c(c1COC(=O)c1ccc(C)s1)C(C)=CC(C)(C)N2 [Compound 1-33, 6-[2-Methoxy-4-(pyridin-4-ylcarbonyloxy)phenyl]-5-(5-methylthiophen-2-ylcarbonyloxymethyl)-2,2,4-trimethyl-1,2-dihydroquinoline] | 96
COc1ccc(C(=O)OCc2c(-c3ccc(OC(=O)c4cccnc4)cc3OC)ccc3c2C(C)=CC(C)(C)N3)cc1 [Compound 1-34, 5-(4-Methoxybenzoyloxymethyl)-6-[2-methoxy-4-(pyridin-3-ylcarbonyloxy)phenyl]-2,2,4-trimethyl-1,2-dihydroquinoline] | 95
COc1ccc(C(=O)OCc2c(-c3ccc(OC(=O)c4ccccc4Cl)cc3OC)ccc3c2C(C)=CC(C)(C)N3)cc1 [Compound 1-35, 6-[4-(2-Chlorobenzoyloxy)-2-methoxyphenyl]-5-(4-methoxybenzoyloxymethyl)-2,2,4-trimethyl-1,2-dihydroquinoline] | 100
COc1ccc(C(=O)OCc2c(-c3ccc(OC(=O)c4ccco4)cc3OC)ccc3c2C(C)=CC(C)(C)N3)cc1 [Compound 1-36, 6-[4-(Furan-2-ylcarbonyloxy)-2-methoxyphenyl]-5-(4-methoxybenzoyloxymethyl)-2,2,4-trimethyl-1,2-dihydroquinoline] | 100
COc1cc(OC(=O)c2ccccc2OC(C)=O)ccc1-c1ccc2c(c1COC(=O)c1ccc(C)s1)C(C)=CC(C)(C)N2 [Compound 1-44, 6-[4-(2-Acetoxybenzoyloxy)-2-methoxyphenyl]-5-(5-methylthiophen-2-ylcarbonyloxymethyl)-2,2,4-trimethyl-1,2-dihydroquinoline] | 96

Results, then the molecule that gave them:

inhibition at 20 µM (stock) [%] | SMILES
100 | COc1cc(OC(=O)c2cccnc2)ccc1-c1ccc2c(c1COC(=O)c1ccc(Br)s1)C(C)=CC(C)(C)N2 [Compound 1-37, 5-(5-Bromothiophen-2-ylcarbonyloxymethyl)-6-[2-methoxy-4-(pyridin-3-ylcarbonyloxy)phenyl]-2,2,4-trimethyl-1,2-dihydroquinoline]
100 | COc1cc(OC(=O)c2ccco2)ccc1-c1ccc2c(c1COC(=O)c1ccc(Br)s1)C(C)=CC(C)(C)N2 [Compound 1-39, 5-(5-Bromothiophen-2-ylcarbonyloxymethyl)-6-[4-(furan-2-ylcarbonyloxy)-2-methoxyphenyl]-2,2,4-trimethyl-1,2-dihydroquinoline]
100 | COc1cc(OC(=O)C(C)C)ccc1-c1ccc2c(c1COC(=O)c1ccc(C)s1)C(C)=CC(C)(C)N2 [Compound 1-43, 6-(4-Isopropylcarbonyloxy-2-methoxyphenyl)-5-(5-methylthiophen-2-ylcarbonyloxymethyl)-2,2,4-trimethyl-1,2-dihydroquinoline]
100 | COc1cc(OC(=O)c2cccnc2OC)ccc1-c1ccc2c(c1COC(=O)c1ccc(C)s1)C(C)=CC(C)(C)N2 [Compound 1-45, 6-[2-Methoxy-4-(2-methoxypyridin-3-ylcarbonyloxy)phenyl]-5-(5-methylthiophen-2-ylcarbonyloxymethyl)-2,2,4-trimethyl-1,2-dihydroquinoline]
99 | COc1cc(OC(=O)c2cccc(C)c2)ccc1-c1ccc2c(c1COC(=O)c1ccc(C)s1)C(C)=CC(C)(C)N2 [Compound 1-46, 6-[2-Methoxy-4-(3-methylbenzoyloxy)phenyl]-5-(5-methylthiophen-2-ylcarbonyloxymethyl)-2,2,4-trimethyl-1,2-dihydroquinoline]
96 | COc1cc(OC(=O)c2ccc(C)cc2)ccc1-c1ccc2c(c1COC(=O)c1ccc(C)s1)C(C)=CC(C)(C)N2 [Compound 1-47, 6-[2-Methoxy-4-(4-methylbenzoyloxy)phenyl]-5-(5-methylthiophen-2-ylcarbonyloxymethyl)-2,2,4-trimethyl-1,2-dihydroquinoline]
96 | COc1cc(OC(=O)c2ccc(F)cc2)ccc1-c1ccc2c(c1COC(=O)c1ccc(C)s1)C(C)=CC(C)(C)N2 [Compound 1-48, 6-[4-(4-Fluorobenzoyloxy)-2-methoxyphenyl]-5-(5-methylthiophen-2-ylcarbonyloxymethyl)-2,2,4-trimethyl-1,2-dihydroquinoline]
98 | COc1cc(OC(=O)c2ccccc2[N+](=O)[O-])ccc1-c1ccc2c(c1COC(=O)c1ccc(C)s1)C(C)=CC(C)(C)N2 [Compound 1-49, 6-[2-Methoxy-4-(2-nitrobenzoyloxy)phenyl]-5-(5-methylthiophen-2-ylcarbonyloxymethyl)-2,2,4-trimethyl-1,2-dihydroquinoline]
90 | COc1cc(OC(=O)c2occc2C)ccc1-c1ccc2c(c1COC(=O)c1ccc(C)s1)C(C)=CC(C)(C)N2 [Compound 1-50, 6-[2-Methoxy-4-(3-methylfuran-2-ylcarbonyloxy)phenyl]-5-(5-methylthiophen-2-ylcarbonyloxymethyl)-2,2,4-trimethyl-1,2-dihydroquinoline]
97 | COc1cc(OS(=O)(=O)CCC(F)(F)F)ccc1-c1ccc2c(c1COC(=O)c1ccc(C)s1)C(C)=CC(C)(C)N2 [Compound 2-1, 6-[2-Methoxy-4-(3,3,3-trifluoropropylsulfonyloxy)phenyl]-5-(5-methylthiophen-2-ylcarbonyloxymethyl)-2,2,4-trimethyl-1,2-dihydroquinoline]
99 | CCCS(=O)(=O)Oc1ccc(-c2ccc3c(c2COC(=O)c2ccc(C)s2)C(C)=CC(C)(C)N3)c(OC)c1 [Compound 2-2, 6-(2-Methoxy-4-propylsulfonyloxyphenyl)-5-(5-methylthiophen-2-ylcarbonyloxymethyl)-2,2,4-trimethyl-1,2-dihydroquinoline]
